Test results published in patent publication US12415819B2, “Cu- and Ni-catalyzed decarboxylative borylation reactions” (The Scripps Research Institute, priority 2017, dated 2025).
Where two headings read alike, the source gives them in different places. Residues, ends and D or L forms follow the SMILES beside them. *: point of attachment. Moc = COC(=O)*

How the values were obtained:
[1] = biological target: human neutrophil elastase (Homo sapiens (Human), UniProt P08246); assay: Elastase inhibition assay, purified human neutrophil elastase; assay type: biochemical; conditions: for IC50 / LipE: Purified NHE; for IC50: 30 minutes incubation at room temperature, 100 μM substrate
Chain of human neutrophil elastase (P08246 30-247): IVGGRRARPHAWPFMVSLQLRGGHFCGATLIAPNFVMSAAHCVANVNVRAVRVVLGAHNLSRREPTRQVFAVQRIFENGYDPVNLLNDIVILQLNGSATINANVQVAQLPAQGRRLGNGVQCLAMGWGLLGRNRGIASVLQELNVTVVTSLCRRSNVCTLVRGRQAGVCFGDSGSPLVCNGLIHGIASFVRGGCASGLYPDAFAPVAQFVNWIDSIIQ
Description: Serially diluted compounds in DMSO were dispensed into a 384-well black opaque plate by Echo dispenser. 0.1 μg/mL human neutrophil elastase (EPC, Catalog# SE563, Owensville, Ms.) or human sputum diluted with assay buffer (100 mM HEPES, 500 mM NaCl, 0.02% Tween 20) was added into the 384-well plate, and was incubated with different compounds at different concentrations for 30 minutes at room temperature. The final concentration of DMSO in the reaction was 0.1%. […] Slope of fluorescence intensity vs. time representing the Vmax of enzyme activity was calculated with MARS software. % relative inhibition was calculated as: […]
(§1) IC50 was calculated based on the % relative inhibition curve using log(agonist) vs. response (three parameters) method with Prism software. All experiments were performed in triplicate for at least three independent times.

[2] = biological target: elastase in COPD patient sputum (Homo sapiens (Human), UniProt P08246); assay: Elastase inhibition assay in COPD patient sputum; assay type: biochemical
Chain of elastase in COPD patient sputum (P08246 30-267): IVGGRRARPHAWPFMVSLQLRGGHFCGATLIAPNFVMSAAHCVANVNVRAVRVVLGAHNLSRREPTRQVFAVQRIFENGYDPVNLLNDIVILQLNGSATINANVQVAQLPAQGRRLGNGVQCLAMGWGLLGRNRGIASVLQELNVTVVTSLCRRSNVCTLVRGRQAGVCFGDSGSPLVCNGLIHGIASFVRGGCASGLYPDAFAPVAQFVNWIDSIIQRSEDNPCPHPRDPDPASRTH
Description: (§2) Serially diluted compounds in DMSO were dispensed into a 384-well black opaque plate by Echo dispenser. 0.1 μg/mL human neutrophil elastase (EPC, Catalog# SE563, Owensville, Ms.) or human sputum diluted with assay buffer (100 mM HEPES, 500 mM NaCl, 0.02% Tween 20) was added into the 384-well plate, and was incubated with different compounds at different concentrations for 30 minutes at room temperature. The final concentration of DMSO in the reaction was 0.1%. Elastase substrate MeOSuc-AAPV-AMC (Bachem, Catalog #I-1270, Torrance, CA) of 100 μM final concentration was then added into the reaction system just before enzyme kinetics were read on PheraSTAR plate reader at excitation of 380 nm and emission of 460 nm with a 3-minutes interval for 30 minutes in total. Slope of fluorescence intensity vs. time representing the Vmax of enzyme activity was calculated with MARS software. % relative inhibition was calculated as: […]
as §1
(§3) Human sputum was purchased from Discovery Life Sciences (Los Osos, CA). Human sputum was diluted 1:10 in volume with assay buffer (100 mM HEPES, 500 mM NaCl, 0.02% Tween 20) followed by vigorous vortexing. The 1:10 diluted human sputum was further diluted into 1:30, 1:90, 1:270, 1:810, and 1:2430. The elastase concentration was determined by elastase inhibition assay as described above. Specifically, a series of standards of human neutrophil elastase (starting at 2 μg/mL and further diluted 1:2 in volume) were prepared in the assay buffer. The samples and standards were plated in a 384-well black solid bottom plate; the substrate MeOSuc-AAPV-AMC of 100 μM final concentration was then added into the reaction system just before enzyme kinetics were read on PheraSTAR plate reader as mentioned above. The slope of enzymatic kinetic reading was calculated by MARS software. The elastase levels of the human sputum were calculated based on the standard curve.

[3] = biological target: elastase in CF patient sputum (Homo sapiens (Human), UniProt P08246); assay: Elastase inhibition assay in CF patient sputum; assay type: biochemical; conditions: for IC50 / LipE: CF sputum
Chain of elastase in CF patient sputum (P08246 30-267): as above
Description: as §2, §1, §3

[4] = Mouse Liver Microsomal Metabolic Stability Assay; conditions: for Remaining (*NCF = 60min): MLM 0.5, no co-factor; for Remaining (T = 60 min): MLM 0.5, with NADPH regenerating system
Description: 100 mM potassium phosphate buffer, pH 7.4. • 2. 10 mM MgCl2 • 3) Compound Dilution:
Intermediate solution was prepared by diluting 5 μL of compound or control stock solution (10 mM in DMSO) with DMSO (45 μL) and 1:1 Methanol/Water (450 μL) (concentration=100 μM, 45% MeOH). Working solution was prepared by diluting 50 μL of the intermediate solution with 450 μL of 100 mM potassium phosphate buffer, pH=7.4 (centration=10 μM, 4.5% MeOH). • 4) NADPH regenerating system (final Isocitric dehydrogenase concentration=1 unit/mL at incubation) comprised:
10 μL/well of compound working solution or control working solution was added to all plates (T0, T5, T10, T20, T30, T60, NCF60) except the matrix blank. 80 μL/well of microsome solution was added to every plate. The mixtures of microsome solution and compound were incubated at 37° C. for about 10 min. 10 μL/well of NADPH regenerating system (pre-warmed to 37° C.) was then added to every plate to start the reaction. […] For NCF60 (abbreviation of no co-factor) no NADPH regenerating system was added, but was replaced by 10 μL/well of potassium phosphate buffer (100 mM, pH 7.4); the resulting mixture was incubated at 37° C. for 1 h.
The reactions were then terminated with the stop solution (cold at 4° C.) containing 100 ng/mL Tolbutamide and 100 ng/mL Labetalol ([…]). The sampling plates were shaken for approximately 10 minutes, then were centrifuged at 4000 rpm for 20 min at 4° C. While centrifuging, 8 new 96 well plates were loaded with […] of HPLC grade water. 100 μL of supernatant was finally added to 300 μL of HPLC grade water and mixed for LC/MS/MS analysis.
The equation of first order kinetics was used to calculate T1/2 and CIint(mic): […]

[5] = Caco-2 Permeability Assay; conditions: human
Description: Digoxin, fenoterol, and propranol were used as standards respectively. Transport Method:
The transport buffer used in the study was HBSS with 10 mM HEPES at pH 7.40±0.05. Compounds were tested at 2 μM bi-directionally in duplicates. Digoxin was tested at […] bi-directionally in a duplicate, while fenoterol and propranolol were tested at 2 μM in A(apical) to B (basolateral) direction in duplicates. The final DMSO concentration was adjusted to less than 1%. The plate was incubated for 2 hours in a CO2 incubator at 37±1° C., with 5% CO2 at saturated humidity without shaking. All samples, after mixing with acetonitrile containing internal standard, were centrifuged at 4000 rpm for 20 min. Subsequently,100 μL supernatant solution was diluted with 100 μL distilled water for LC/MS/MS analysis. Concentrations of test and control compounds in starting solution, donor solution, and receiver solution were quantified by LC/MS/MS methodologies, using peak area ratio of analyte/internal standard. After transport assay, lucifer yellow rejection assay was applied to determine the Caco-2 cell monolayer integrity.
Data analysis: The apparent permeability coefficient Papp (cm/s) was calculated using the equation:
The efflux ratio was calculated using the equation: Efflux ratio=Papp(BA)/Papp(AB)
Percent recovery was calculated using the equation: % Recovery=100×[(Vr·Cr)+(Vd·Cd)]/(Vd·C0) Where Vd is the volume in the donor chambers (0.075 mL on the apical side, 0.25 mL on the basolateral side); Cd and Cr are the final concentrations of transport compound in donor and receiver chambers, respectively.

Plasma Stability Assay = assay type: in vitro ADME, mouse; conditions: CD-1 Mouse Plasma
Description: Propantheline was used as the reference compound in this assay; all stock solutions were stored at −40° C. before use. • 2) Test system: CD-1 Mouse Plasma from a minimum of 20 male individuals were obtained from BioreclamationlVT (Catalog #: […]2-M; Batch #: MSE244515). EDTA-K2 was used as the anticoagulant. Procedure:
The frozen plasma was thawed in a water bath at 37° C. prior to the experiments. The plasma was centrifuged at 4000 rpm for 5 min and the clots were removed if necessary.
The pH was adjusted to 7.4±0.1 as necessary. An intermediate solution (1 mM) was prepared and a 100 μM dosing solution was prepared by diluting 10 μL of the intermediate solution with 90 μL 45% MeOH/H2O. Duplicate of test samples were made by mixing 98 μL of blank plasma with 2 μL of dosing solution (100 μM) to achieve the final concentration of 2 μM. Samples were incubated at 37° C. At each time point (0, 10, 30, 60, and 120 min), 400 μL of stop solution (consisting of 200 ng/mL tolbutamide and 20 ng/mL buspirone in 50% MeOH/CH3CN) was added to precipitate protein under thorough mixing. The sample plates were then centrifuged at 4,000 rpm for 10 min. An aliquot of supernatant (100 μL) was transferred from each well and mixed with 200 of μL ultrapure water. The samples were shaken at 800 rpm for about 10 min before LC-MS/MS analysis.
Data analysis: The % remaining of test compound after incubation in plasma was calculated using following equation: Remaining=100×(PAR at Tn/PAR at T0) where PAR is the peak area ratio of analyte versus internal standard (IS) and The appointed incubation time points are T0 (0 min), Tn (n=0, 10, 30, 60, 120 min).
LC-MS/MS condition: Each compound was analyzed by LC/MS using an ACE 5-phenyl 50×2.1 mm column (Part No. ACE-125-0502) with 0.1% formic acid in water and 0.1% formic acid in acetonitrile as the mobile phases. Tobultamide was used as the internal standard. Data collected were processed by Analyst 1.6.2 software and MultiQuant 3.0.2 software.

[6] = mouse, liver microsomes, pH 7.4
[7] = Caco-2, pH 7.4, Mean Recovery % A to B

## COC(=O)N[C@H](C(=O)N1CCC[C@H]1C(=O)N[C@H](C(=O)O)C(C)C)C(C)C [Compound 50b, (methoxycarbonyl)-L-valyl-L-prolyl-L-valine] (Moc-Val-Pro-Val-OH)
[1]
  inhibitory activity against HNE (in words): devoid of any inhibitory activities
  IC50: Not Active

## Cc1c(-c2ccnn2C)cc(C(=O)NCc2ccc(S(C)(=O)=O)cn2)c(=O)n1-c1cccc(C(F)(F)F)c1 [Compound 53]
[1]
  LipE: 7.32
[1]; read-out: IC50
  IC50: 2.62 ± 0.39 nM
[2]
  IC50: 2.98 ± 0.82 nM
  LipE: 7.22
[3]
  IC50: 4.08 ± 0.39 nM
  LipE: 7.11

## CC1=C(C#N)[C@@H](c2ccc(C#N)cc2S(C)(=O)=O)N(C)C(=O)N1c1cccc(C(F)(F)F)c1 [Compound 54, BAY 85-8501]
[1]
  LipE: 6.76
[2]
  LipE: 6.85
[3]
  LipE: 5.87
[3]; sputum samples of CF and COPD patients
  inhibitory activity in patient sputum versus purified HNE (in words): potencies diminished drastically

## COC(=O)C1=C(C)N(c2cccc(C(F)(F)F)c2)c2n[nH]c(=O)n2C1c1ccc(C#N)cc1 (stereo not drawn) [Compound 56]
[1]
  LipE: 4.59
[1]; read-out: IC50
  IC50: 1.34 ± 0.13 nM
[2]
  IC50: 1.12 ± 0.04 nM
  LipE: 4.67
[3]
  IC50: 2.68 ± 0.04 nM
  LipE: 4.29

## COC(=O)C1=C(C)N(c2cccc(C(F)(F)F)c2)c2nn(CC(=O)N(C)CCC[N+](C)(C)C)c(=O)n2C1c1ccc(C#N)cc1 (stereo not drawn) [Compound 57]
[1]
  LipE: 9.46
[1]; read-out: IC50
  IC50: 0.99 ± 0.13 nM
[2]
  IC50: 0.97 ± 0.14 nM
  LipE: 9.45
[3]
  IC50: 2.04 ± 0.08 nM
  LipE: 9.16

## O=C(O)Cc1ccccc1Nc1c(Cl)cccc1Cl [Diclofenac]
[4]
  Remaining (*NCF = 60min): 88.0%
  Remaining (T = 60 min): 43.0%
[4]; MLM 0.5, Qh 90.0 mL/min/Kg
  Extraction ratio: 0.5
[4]; [6]
  CLint scaled at 1 μM: 108 mL/min/kg
  microsomal CLint at 1 μM: 27.2 µL/min/mg
[4]; mouse, microsomes, pH 7.4
  half-life at 1 μM: 51 min

## C[C@H]1O[C@@H](O[C@H]2[C@@H](O)C[C@H](O[C@H]3[C@@H](O)C[C@H](O[C@H]4CC[C@@]5(C)[C@H](CC[C@@H]6[C@@H]5C[C@@H](O)[C@]5(C)[C@@H](C7=CC(=O)OC7)CC[C@]65O)C4)O[C@@H]3C)O[C@@H]2C)C[C@H](O)[C@@H]1O [Digoxin]
[5]; Caco-2, pH 7.4
  Papp A→B at 120 min, 2 μM: < 0.02 ×10⁻⁶ cm/s
  Papp B→A at 120 min, 2 μM: 8.5 ×10⁻⁶ cm/s
  efflux ratio at 2 h, 2 μM: > 364
[5]; [7]
  recovery at 2 h, 2 μM: < 91.2%
[5]; Caco-2, pH 7.4, Mean Recovery % B to A
  recovery at 2 h, 2 μM: 100%

## CC(Cc1ccc(O)cc1)NCC(O)c1cc(O)cc(O)c1 (stereo not drawn) [Fenoterol]
[5]; Caco-2, pH 7.4
  Papp A→B at 120 min, 2 μM: 0.24 ×10⁻⁶ cm/s
  recovery at 2 h, 2 μM: 93.4%

## CC(C)[N+](C)(CCOC(=O)C1c2ccccc2Oc2ccccc21)C(C)C [Propantheline]
Plasma Stability Assay; 0 min, 2 μM, 37° C.
  % Remaining (mean): 100.0%
Plasma Stability Assay; 10 min
  % Remaining (mean): 76.8%
Plasma Stability Assay; 30 min
  % Remaining (mean): 39.1%
Plasma Stability Assay; 60 min
  % Remaining (mean): 21.7%
Plasma Stability Assay; 120 min
  % Remaining (mean): 7.7%

## CC(C)NCC(O)COc1cccc2ccccc12 (stereo not drawn) [Propranolol]
[5]; Caco-2, pH 7.4
  Papp A→B at 120 min, 2 μM: 19.8 ×10⁻⁶ cm/s
[5]; [7]
  recovery at 2 h, 2 μM: 69.2%

## C[C@]12CC[C@H]3[C@@H](CCC4=CC(=O)CC[C@@]43C)[C@@H]1CC[C@@H]2O [Testosterone]
[4]; MLM 0.5
  CLint(liver): 2365.5 mL/min/kg
[4]
  Remaining (*NCF = 60min): 70.3%
  Remaining (T = 60 min): 0.0%
[4]; mouse, microsomes, pH 7.4
  half-life at 1 μM: 2.3 min
  microsomal CLint: 597 µL/min/mg

## POL6014 [Compound 55]
[1]; read-out: IC50
  IC50: 0.093 ± 0.008 nM
[2]
  IC50: 0.051 ± 0.004 nM
  LipE: 18.8
[3]
  IC50: 0.48 ± 0.03 nM
  LipE: 17.8
